The structures appear in SMILES notation.

For the first test, the system named is human RS virus A2 strain. Nature of the test: In vitro test for anti-RS virus proliferation inhibitory activity (quantitative RT-PCR of RS virus RNA copy number in infected Vero cells). The conditions noted are these: 72 h; Vero cells infected with human RS virus A2 strain, 3 days of incubation, RS virus N gene RNA copy number by quantitative RT-PCR; read-out: Anti-RS virus Activity. The test is classed as cell-based. Here is the method: A mixture of Vero cells (3.4×10^5 cells/mL) and human RS virus A2 strain (1.7×10^4 TCID50/mL) (EMEM medium supplemented with 10% FCS) was added to a 96-well plate at 50 μL/well, and the 10% FCS-supplemented EMEM medium adjusted to the desired final concentration of the compounds to be tested was added at 50 μL/well, followed by incubating the plate at 37° C. in the presence of 5% CO2 at 37° C. After 3 days of incubation, the supernatant was removed, the cells were washed with PBS(−), and the cell lysis buffer supplied with the SingleShot (registered trademark) Cell Lysis Kit (Bio-Rad) was added dropwise at 50 μL/well to lysis the cells thereby providing the cell lysate.
Human RS virus RNA copy number in the cell lysate was determined by quantitative RT-PCR using iTaq Universal SYBR Green One-Step Kit (Bio-Rad). Specifically, primers targeting human RS virus N gene (Rameix-Welti et al, Nat Commun5: 5104, 2014. doi: 10.1038/ncomms6104) was used to prepare the reaction solution according to the instructions provided with the kit, and a 96-well PikoReal Real-Time PCR System (TCR0096, Thermo Fisher Scientific) was used to detect PCR reaction and signal assay.
The copy number was calculated by the relative method using the comparative Ct method using compound-free virus-infected cells as controls.
`O=S(=O)(Cc1ccccc1)N1CCCC[C@H]1c1nc(CCCc2ccccc2)no1` [Compound 2E, 3-(3-phenylpropyl)-5-[(2S)-1-benzylsulfonylpiperidin-2-yl]-1,2,4-oxadiazole]: the IC50 is less than 10 µM.

Regarding `O=C(N1CCC[C@H]1c1nc(CCCc2ccccc2)no1)C(F)(F)F` [1C′, 3-(3-phenylpropyl)-5-[(2S)-1-trifluoroacetylpyrrolidin-2-yl]-1,2,4-oxadiazole], the IC50 is less than 10 µM. On the same count and under the same terms, to `NC(=O)c1ccc2cc(C(=O)N3C[C@H](O)C[C@H]3c3nc(CCCc4ccccc4)no3)ccc2c1` [Compound 4-5] belongs greater than 50 µM.

Staying with this test, now noted: 72 h; Vero cells infected with human RS virus A2 strain, 3 days of incubation, RS virus RNA copy number by quantitative RT-PCR; read-out: Anti-RS virus Activity.
Take `CC(C)(C)OC(=O)N1CCCC[C@H]1c1noc(CCc2ccccc2)n1` [Compound C2-16-1, Tert-butyl (S)-2-(5-phenethyl-1,2,4-oxadiazol-3-yl) piperidine-1-carboxylate]: the IC50 fell in the range of 10 to 50 µM.

In the case of `CS(=O)(=O)N1CC(CC2CCC2)CC1c1nc(CCCc2ccccc2)no1` (centres unmarked) [Compound 6C, 3-(3-phenylpropyl)-5-(1-methanesulfonyl-4-cyclobutylmethylpyrrolidin-2-yl)-1,2,4-oxadiazole], the IC50 is less than 10 µM.

As to `CC(C)(C)NC(=O)N1C[C@H]2CC[C@]1(c1nc(CCc3ccncc3)no1)CC2` [Compound 13H, (1s, 4s)-N-(tert-butyl)-1-(3-(2-(pyridin-4-yl)ethyl)-1,2,4-oxadiazol-5-yl)-2-azabicyclo[2.2.2]octane-2-carboxamide], the IC50 is greater than 50 µM. The same measure, in the same setting: then `[O-][S+](N1CCCC[C@H]1c1nc(CCCc2ccccc2)no1)C12CC3CC(CC(C3)C1)C2` (stereo partly drawn) [2AF′, 5-((2S)-1-((adamantan-1-yl)sulfinyl)piperidin-2-yl)-3-(3-phenylpropyl)-1,2,4-oxadiazole], with 10 to 50 µM. Still for that read-out and setting: to `CC(C)(C)OC(=O)NCc1ccc(CCCc2noc([C@@H]3CCCCN3S(=O)(=O)C3CCCCC3)n2)cc1` [Compound 30B] belongs 10 to 50 µM; to `O=S(=O)(N1CCCCC1)n1nc([C@H]2N[C@@H]3CC[C@H]2C3)nc1CCc1ccncc1` [25AD′], 10 to 50 µM. On the same count and under the same terms, then `CC(C)(C)OC(=O)N1C[C@@H](CC2CCC2)C[C@H]1c1nc(CCCc2ccccc2)no1` (racemic) [Compound 6-1, 3-(3-phenylpropyl)-5-(1-tert-butoxycarbonyl-4-cyclobutylmethylpyrrolidin-2-yl)-1,2,4-oxadiazole], with less than 10 µM. With `CC(C)(C)OC(=O)N1C[C@H](c2ccccc2)C[C@H]1c1nc(CCCc2ccccc2)no1` [Compound 7-1, 3-(3-phenylpropyl)-5-[(2S,4S)-1-tert-butoxycarbonyl-4-phenylpyrrolidin-2-yl]-1,2,4-oxadiazole], the IC50 is less than 10 µM. The same measure, in the same setting: to `CC(C)(C)OC(=O)N1CCC[C@H]1c1nc(CCc2ccccc2)no1` [Compound 9-1, 3-(2-phenylethyl)-5-[(2S)-1-tert-butoxycarbonylpyrrolidin-2-yl]-1,2,4-oxadiazole] belongs greater than 50 µM.

On to `O=S(=O)(N1CCOCC1)N1CCCC[C@H]1c1nc(CCCc2ccccc2)no1` [Compound 2AE, (S)-4-((2-(3-(3-phenylpropyl)-1,2,4-oxadiazol-5-yl)piperidin-1-yl)sulfonyl)morpholine], for which the IC50 is less than 10 µM. Still for that read-out and setting: then `CC(C)CC(=O)N1CCCC[C@H]1c1nc(CCCc2ccccc2)no1` [Compound 2Q, (S)-3-Methyl-1-(2-(3-(3-phenylpropyl)-1,2,4-oxadiazol-5-yl)piperidin-1-yl)butan-1-one], with less than 10 µM; and `c1ccc(CCCc2noc([C@@H]3CCCN3CC3CCCCC3)n2)cc1` [Compound 1U, (S)-5-(1-(cyclohexylmethyl)pyrrolidin-2-yl)-3-(3-phenylpropyl)-1,2,4-oxadiazole], with less than 10 µM.

For the compound `N#C[C@H]1C[C@@H](c2nc(CCCc3ccccc3)no2)N(S(=O)(=O)c2ccc(F)cc2)C1` [Compound 41AJ, (3S,5S)-1-((4-fluorophenyl)sulfonyl)-5-(3-(3-phenylpropyl)-1,2,4-oxadiazol-5-yl)pyrrolidine-3-carbonitrile], the IC50 is 10 to 50 µM. On the same count and under the same terms, then `COC(=O)N1CCC[C@H]1c1nc(CCCc2ccccc2)no1` [Compound 1K, Methyl (S)-2-(3-(3-phenylpropyl)-1,2,4-oxadiazol-5-yl) pyrrolidine-1-carboxylate], with 10 to 50 µM. Still for that read-out and setting: then `CC(C)OC(=O)N1CCC[C@H]1c1nc(CCCc2ccccc2)no1` [Compound 1L, Isopropyl (S)-2-(3-(3-phenylpropyl)-1,2,4-oxadiazol-5-yl) pyrrolidine-1-carboxylate], with 10 to 50 µM. Still for that read-out and setting: then `CC(C)(C)OC(=O)N1[C@@H]2CC[C@@H](C2)[C@H]1c1nc(CCc2ccccc2)no1` [Compound 14-1, Tert-butyl (1R,3S,4S)-3-(3-phenethyl-1,2,4-oxadiazol-5-yl)-2-azabicyclo[2.2.1]heptane-2-carboxylate], with less than 10 µM.

In the case of `COC(=O)c1nc([C@@H]2CCCCN2S(=O)(=O)C2CCCCC2)oc1C` [Compound 32B, Methyl (S)-2-(1-(cyclohexylsulfonyl)piperidin-2-yl)-5-methyloxazole-4-carboxylate], the IC50 was in the range of 10 to 50 µM. On the same count and under the same terms, then `O=C(NCc1cnc2ccccc2c1)N1[C@@H]2CC[C@@H](C2)[C@H]1c1nnc(Cc2c[nH]c3ccccc23)[nH]1` [Compound 24AH], with 10 to 50 µM; and `CCOC(=O)C1CCN(S(=O)(=O)N2CC(CC3CCC3)CC2c2nc(CCCc3ccccc3)no2)CC1` (centres unmarked) [Compound 6AC, ethyl 1-((4-(cyclobuthylmethyl)-2-(3-(3-phenylpropyl)-1,2,4-oxadiazole-5-yl)pyrrolidin-1-yl)sulfonyl)piperidin-4-carboxylate], with 10 to 50 µM; and `O=S(=O)(N1CCCCC1)N1[C@@H]2CC[C@@H](C2)[C@H]1c1nnc(CCc2ccncc2)[nH]1` [Compound 25AD, (1R,3S,4S)-2-(piperidine-1-ylsulfonyl)-3-(5-(2-(pyridin-4-yl)ethyl)-4H-1,2,4-triazol-3-yl)-2-azabicyclo[2.2.1]heptane], with 10 to 50 µM. The same measure, in the same setting: to `O=C(NCc1ccccc1)N1CCC[C@H]1c1nc(CCCc2ccccc2)no1` [Compound 1F, (S)—N-Benzyl-2-(3-(3-phenylpropyl)-1,2,4-oxadiazol-5-yl) pyrrolidine-1-carboxamide] belongs 10 to 50 µM; to `CC(C)CCN1CCCC[C@H]1c1nc(CCCc2ccccc2)no1` [Compound 2T, (S)-5-(1-isopentylpiperidin-2-yl)-3-(3-phenylpropyl)-1,2,4-oxadiazole], 10 to 50 µM; to `O=S(=O)(C1CCCCC1)N1CCCCC1c1ncc(-c2ccccc2)[nH]1` (centres unmarked) [Compound 40B], 10 to 50 µM. Same read-out and setting: to `CN(C)c1ccc(S(=O)(=O)N2C[C@H](c3ccccc3)C[C@H]2c2nc(CCCc3ccccc3)no2)cc1` [Compound 7AK, N,N-dimethyl-4-(((2S,4S)-4-phenyl2-(3-(3-phenylpropyl)-1,2,4-oxadiazole-5-yl)pyrrolidin-1-yl)sulfonyl)aniline] belongs less than 10 µM; to `CC(C)(C)OC(=O)N1CCCC[C@H]1c1nnc(CCCc2ccccc2)[nH]1` [Compound 20-1, Tert-butyl (S)-2-(5-(3-phenylpropyl)-4H-1,2,4-triazol-3-yl) piperidine-1-carboxylate], less than 10 µM. Regarding `CC(C)NC(=O)N1CCCC[C@H]1c1nc(CCc2ccccc2)no1` [Compound 10G, (S)—N-isopropyl-2-(3-phenethyl-1,2,4-oxadiazol-5-yl) piperidine-1-carboxamide], the IC50 was greater than 50 µM. Still for that read-out and setting: to `c1ccc(CCCc2noc([C@@H]3CCCCN3CCc3ccccc3)n2)cc1` [Compound 2AB, (S)-5-(1-phenethylpiperidin-2-yl)-3-(3-phenylpropyl)-1,2,4-oxadiazole] belongs 10 to 50 µM; to `CC(C)(C)S(=O)(=O)N1CCCC[C@H]1c1nc(CCCc2ccccc2)no1` [Compound 2X, (S)-5-(1-(tert-butylsulfonyl)piperidin-2-yl)-3-(3-phenylpropyl)-1,2,4-oxadiazole], less than 10 µM. Same read-out and setting: then `O=S(=O)(C1CCCCC1)N1CC2(CC2)C[C@H]1c1nc(CCCc2ccccc2)no1` [Compound 5B, 3-(3-phenylpropyl)-5-{(6S)-5-cyclohexylsulfonyl-5-azaspiro[2.4]hept-6-yl}-1,2,4-oxadiazole], with less than 10 µM; and `O=S(=O)(c1ccccc1)N1CC(CC2CCC2)CC1c1nc(CCCc2ccccc2)no1` (centres unmarked) [Compound 6D, 3-(3-phenylpropyl)-5-(1-benzenesulfonyl-4-cyclobutylmethylpyrrolidin-2-yl)-1,2,4-oxadiazole], with less than 10 µM. Same read-out and setting: then `CCOC(=O)C1CCN(S(=O)(=O)N2C[C@H](c3ccccc3)C[C@H]2c2nc(CCCc3ccccc3)no2)CC1` [Compound 7AC, ethyl 1-(((2S,4S)-4-phenyl2-(3-(3-phenylpropyl)-1,2,4-oxadiazole-5-yl)pyrrolidin-1-yl)sulfonyl)piperidin-4-carboxylate], with 10 to 50 µM.

For the compound `CC(C)(C)OC(=O)N1[C@@H]2CC[C@@H](C2)[C@H]1c1nnc(CCc2ccncc2)[nH]1` [Compound 25-1, Tert-butyl (1R,3S,4S)-3-(5-(2-(pyridin-4-yl)ethyl)-4H-1,2,4-triazol-3-yl)-2-azabicyclo[2.2.1]heptane-2-carboxylate], the IC50 was 10 to 50 µM.

These data come from US20240327392A1, “HETEROCYCLOALKYL-SUBSTITUTED POLYHETEROAZOLE DERIVATIVES AS MEDICAMENTS FOR TREATING AND/OR PREVENTING RS VIRUS INFECTIONS” (ALBIUS SCIENCES ALPHA PRIVATE LIMITED, priority 2021, published 2024).
